Measurements taken from US12161688B2, “Treatment of inflammatory bowel disease with long acting glatiramer and adipose-derived stem cells” (STEM CELL MEDICINE LTD., priority 2016, dated 2024).

Tested on: DSS-induced IBD
Experiment: DSS-induced inflammatory bowel disease (acute colitis) in mice
Format: in vivo, C57BL/6 female mice
Procedure: Glatiramer acetate (GA) and GA Depot administration: […] GA Depot was suspended in sterile water for injection (WFI) (B Braun, Melsumgen, Germany) and injected intramuscularly (IM) at 10 mg dose (doses of GA Depot are given according to amount of active ingredient, i.e. GA Depot 10 mg contains 10 mg GA) divided to two 5 mg doses on days 0 and 1 due to technical reasons (volume limitation). Animals: All animal studies were approved by local ethics committees. C57BL/6 female mice, 7-9 weeks old were randomized into control or treatment groups with similar mean weight Animals were given food and water ad libitum throughout the experiment. Cell culture: SVF was plated at a density of 2×10^6 cells per 75 cm^2. Cells were grown to 80% confluency, trypsinized and sub-cultured up to passage 3-4. Cells were then collected and analyzed by FACS for the markers: […] The cells were stored frozen in liquid nitrogen until use. For use, the cells were thawed and plated at a concentration of 50,000 cells/cm^2 and incubated overnight. Prior to cells intraperitoneal (IP) injection the cells were trypsinized, counted and prepared for injection at a concentration of 1×10^6 cell/100 ul PBS and kept in ice until use for a period no longer than 30 min. Inflammatory bowel disease (IBD) induction: A widely used IBD model in mice is the dextran sulfate sodium (DSS)-induced colitis. DSS administration in the mice drinking water leads to many of the events presumed to initiate and sustain human IBD (Boismenu and Chen (2000) J Leukoc Biol, 67:267-278). […] In brief, body weight, rectal bleeding (observation of bleeding signs on the anus or gross bleeding), stool consistency and survival were monitored daily. […] Fourteen (14) days following disease induction, mice were sacrificed and the large intestine was collected and evaluated for colon length and microscopic colonic damage. […] Statistical analysis: Each data set was analyzed using single-factor analysis of variance (ANOVA) followed by two-tailed, two-sample students' T test assuming unequal variances, n=10/group, +/-standard error.

L-glutamic acid polymer with L-alanine, L-lysine and L-tyrosine, acetate (salt) [Copaxone®]
animals showing bleeding (Hemoccult test) (day 5): 50% | animals showing bleeding (Hemoccult test) (day 10): 20% | effect on IBD manifestations (overall conclusion) (mouse, in vivo): almost no effect
